The structures appear in SMILES notation. Where two headings read alike, the source gives them in different places.

The target of assay [1] is T1, AHR (Homo sapiens, UniProt P35869).
T1 construct: U87 MG glioblastoma cells (ATCC #HTB-14) endogenously expressing AHR; endogenous in cells; host or cells: U87 MG glioblastoma cells (ATCC #HTB-14)
T1 sequence (P35869 11-848): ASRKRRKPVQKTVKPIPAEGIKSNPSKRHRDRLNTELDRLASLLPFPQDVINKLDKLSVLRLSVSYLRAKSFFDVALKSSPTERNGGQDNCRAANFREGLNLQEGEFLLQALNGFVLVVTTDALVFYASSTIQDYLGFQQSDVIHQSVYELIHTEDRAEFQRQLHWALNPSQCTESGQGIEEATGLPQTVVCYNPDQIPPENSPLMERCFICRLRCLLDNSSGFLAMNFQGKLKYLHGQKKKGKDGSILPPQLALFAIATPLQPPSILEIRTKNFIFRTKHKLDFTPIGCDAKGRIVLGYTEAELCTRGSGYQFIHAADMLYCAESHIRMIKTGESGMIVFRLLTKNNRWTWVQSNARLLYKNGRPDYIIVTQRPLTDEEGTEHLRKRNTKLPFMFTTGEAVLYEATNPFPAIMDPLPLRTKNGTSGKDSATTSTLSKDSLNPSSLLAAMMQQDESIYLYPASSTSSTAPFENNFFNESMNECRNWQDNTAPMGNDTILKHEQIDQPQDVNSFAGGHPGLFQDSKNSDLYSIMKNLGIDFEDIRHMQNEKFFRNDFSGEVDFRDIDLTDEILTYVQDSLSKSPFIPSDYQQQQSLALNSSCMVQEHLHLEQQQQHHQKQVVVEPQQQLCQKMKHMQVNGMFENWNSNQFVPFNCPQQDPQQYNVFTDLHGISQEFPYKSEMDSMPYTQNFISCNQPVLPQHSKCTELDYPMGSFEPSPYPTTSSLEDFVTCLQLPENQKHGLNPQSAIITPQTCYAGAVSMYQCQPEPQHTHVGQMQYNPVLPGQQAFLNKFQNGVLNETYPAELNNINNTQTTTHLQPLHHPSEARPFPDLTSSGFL
The assay is described as follows: In vitro assay 1: antagonism in human cell line (AHR transactivation, firefly luciferase reporter, kynurenic acid prestimulated). The note with it: AHR Antagonism Human IC50 [M]. Format: cell-based. Summed up:
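U87 MG + DRE-firefly/constitutive-Renilla stable reporters; kynurenic acid prestim; dual-luc read; Renilla = tox; normalized vs pos/neg controls (pos: 150 μM KYNA + 5 μM staurosporine).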

In assay [2] the target is T2, AHR (Mus musculus, UniProt P30561).
T2 sequence (P30561 1-848 P471L/N533S/M589L): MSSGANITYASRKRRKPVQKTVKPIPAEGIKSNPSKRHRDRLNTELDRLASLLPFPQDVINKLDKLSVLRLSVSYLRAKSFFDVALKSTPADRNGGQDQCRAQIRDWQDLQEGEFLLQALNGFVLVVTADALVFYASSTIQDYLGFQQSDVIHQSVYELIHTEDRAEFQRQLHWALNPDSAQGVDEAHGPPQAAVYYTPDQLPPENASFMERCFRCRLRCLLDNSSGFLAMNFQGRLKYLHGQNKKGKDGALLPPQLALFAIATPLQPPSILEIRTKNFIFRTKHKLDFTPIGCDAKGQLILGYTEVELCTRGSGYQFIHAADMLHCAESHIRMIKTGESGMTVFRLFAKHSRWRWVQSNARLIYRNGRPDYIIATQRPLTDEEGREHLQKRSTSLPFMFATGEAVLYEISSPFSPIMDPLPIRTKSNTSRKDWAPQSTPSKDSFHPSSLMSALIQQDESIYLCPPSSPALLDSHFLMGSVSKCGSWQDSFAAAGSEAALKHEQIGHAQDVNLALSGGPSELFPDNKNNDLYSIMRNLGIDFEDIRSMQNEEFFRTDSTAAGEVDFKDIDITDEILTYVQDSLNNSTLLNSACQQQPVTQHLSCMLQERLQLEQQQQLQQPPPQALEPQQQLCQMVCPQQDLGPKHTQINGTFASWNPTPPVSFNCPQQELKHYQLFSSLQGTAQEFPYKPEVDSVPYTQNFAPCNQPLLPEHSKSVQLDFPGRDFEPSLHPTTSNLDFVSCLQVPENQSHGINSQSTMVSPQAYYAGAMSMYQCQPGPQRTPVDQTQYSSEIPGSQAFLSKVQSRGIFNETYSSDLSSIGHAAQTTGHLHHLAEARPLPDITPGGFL
Nature of the assay: In vitro assay 3: antagonism in mouse cell line (AHR transactivation, firefly luciferase reporter, kynurenic acid prestimulated). Format: cell-based. In outline: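 Mouse cells stably carrying a DRE-driven, AHR-inducible firefly luciferase reporter were prestimulated with the endogenous agonist kynurenic acid before compound addition. Luciferase activity was measured by luminescence and normalized to positive and negative controls, with cells lacking kynurenic acid serving as full-inhibition control. Repeat tests are reported as mean or median.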

[3] abbreviates: mouse Hepa 1c1c7 cells, 200 μM kynurenic acid, 20 hours, read-out: AHR Antagonism Mouse IC50.

Regarding `O=C1NCCCC[C@H]1Nc1nc2ccccc2c2nc(-c3cnn(C4CCC4)c3)nn12` [Example 603, (3R)-3-{[2-(1-cyclobutyl-1H-pyrazol-4-yl)[1,2,4]triazolo[1,5-c]quinazolin-5-yl]amino}azepan-2-one], the IC50 stood at 4.08e-09 M at AHR [1] and 3.39 nM at AHR [2] (setting [3]).

For `O=C1NCCCC[C@H]1Nc1nc2ccccc2c2nc(-c3c[nH]nc3C(F)(F)F)nn12` [Example 604, (3R)-3-({2-[3-(trifluoromethyl)-1H-pyrazol-4-yl][1,2,4]triazolo[1,5-c]quinazolin-5-yl}amino)azepan-2-one], the IC50 against AHR [1] came to 1.33e-07 M; on AHR [2] (setting [3]), 347 nM.

Regarding `Cc1nn(C)cc1-c1nc2c3ccccc3nc(N[C@@H]3CCCCNC3=O)n2n1` [Example 605, (3R)-3-{[2-(1,3-dimethyl-1H-pyrazol-4-yl)[1,2,4]triazolo[1,5-c]quinazolin-5-yl]amino}azepan-2-one], the figures for the IC50 on AHR [1] and on AHR [2] (setting [3]) were 1.59e-09 M and 1.05 nM, respectively.

With `Cc1cc(-c2nc3c4ccccc4nc(N[C@@H]4CCCCNC4=O)n3n2)c(C)n1C` [Example 606, (3R)-3-{[2-(1,2,5-trimethyl-H-pyrrol-3-yl)[1,2,4]triazolo[1,5-c]quinazolin-5-yl]amino}azepan-2-one], the results for the IC50 at AHR [1] and on AHR [2] (setting [3]) were 9.02e-09 M and 3.08 nM, respectively.

For `CC(C)(C)n1nccc1-c1nc2c3ccccc3nc(N[C@@H]3CCCCNC3=O)n2n1` [Example 608, (3R)-3-{[2-(1-tert-butyl-1H-pyrazol-5-yl)[1,2,4]triazolo[1,5-c]quinazolin-5-yl]amino}azepan-2-one], the IC50 against AHR [1] was found to be 1.12e-07 M; on AHR [2] (setting [3]), 25.5 nM.

Regarding `Cc1[nH]ncc1-c1nc2c3ccccc3nc(N[C@@H]3CCCCNC3=O)n2n1` [Example 609, (3R)-3-{[2-(5-methyl-1H-pyrazol-4-yl)[1,2,4]triazolo[1,5-c]quinazolin-5-yl]amino}azepan-2-one], the IC50 at AHR [1] was determined as 1.57e-07 M; on AHR [2] (setting [3]), 324 nM.

For `Cn1cncc1-c1nc2c3ccccc3nc(N[C@@H]3CCCCNC3=O)n2n1` [Example 610, (3R)-3-{[2-(1-methyl-1H-imidazol-5-yl)[1,2,4]triazolo[1,5-c]quinazolin-5-yl]amino}azepan-2-one], the figures for the IC50 at AHR [1] and on AHR [2] (setting [3]) were 2.44e-07 M and 86.5 nM, respectively.

Take `O=C1NCCCC[C@H]1Nc1nc2ccccc2c2nc(-c3ccsc3Cl)nn12` [Example 611, (3R)-3-{[2-(2-chlorothiophen-3-yl)[1,2,4]triazolo[1,5-c]quinazolin-5-yl]amino}azepan-2-one]: the figures for the IC50 on AHR [1] and at AHR [2] (setting [3]) were 4.36e-09 M and 3.16 nM, respectively.

`O=C1NCCCC[C@H]1Nc1nc2ccccc2c2nc(-c3ccc(OC4CC4)cc3)nn12` [Example 612, (3R)-3-({2-[4-(cyclopropyloxy)phenyl][1,2,4]triazolo[1,5-c]quinazolin-5-yl}amino)azepan-2-one]: the IC50 against AHR [1] is 1.32e-09 M; on AHR [2] (setting [3]), 1.23 nM.

With `CC(C)Oc1ccc(-c2nc3c4ccccc4nc(N[C@@H]4CCCCNC4=O)n3n2)cc1` [Example 613, (3R)-3-[(2-{4-[(propan-2-yl)oxy]phenyl}[1,2,4]triazolo[1,5-c]quinazolin-5-yl)amino]azepan-2-one], the IC50 against AHR [1] amounted to 1.17e-09 M; at AHR [2] (setting [3]), 0.799 nM.

Consider `O=C1NCCCC[C@H]1Nc1nc2ccccc2c2nc(-c3ccc(O)cc3)nn12` [Example 614, (3R)-3-{[2-(4-hydroxyphenyl)[1,2,4]triazolo[1,5-c]quinazolin-5-yl]amino}azepan-2-one], for which the results for the half-inhibitory concentration (IC50) at AHR [1] and on AHR [2] (setting [3]) were 2.09e-08 M and 23.8 nM, respectively.

Take `CCOc1ccc(-c2nc3c4ccccc4nc(N[C@@H]4CCCCNC4=O)n3n2)cc1` [Example 616, (3R)-3-{[2-(4-ethoxyphenyl)[1,2,4]triazolo[1,5-c]quinazolin-5-yl]amino}azepan-2-one]: the IC50 at AHR [1] stood at 7.6e-10 M; on AHR [2] (setting [3]) it was 1.07 nM.

For the compound `N#Cc1ccccc1-c1nc2c3ccccc3nc(N[C@@H]3CCCCNC3=O)n2n1` [Example 619, 2-(5-{[(3R)-2-oxoazepan-3-yl]amino}[1,2,4]triazolo[1,5-c]quinazolin-2-yl)benzonitrile], the half-inhibitory concentration (IC50) on AHR [1] is 1.44e-09 M; on AHR [2] (setting [3]), 2.96 nM.

Turning to `Nc1cccc(-c2nc3c4ccccc4nc(N[C@@H]4CCCCNC4=O)n3n2)c1` [Example 621, (3R)-3-{[2-(3-aminophenyl)[1,2,4]triazolo[1,5-c]quinazolin-5-yl]amino}azepan-2-one], the IC50 came out at 1.02e-09 M against AHR [1] and 0.964 nM at AHR [2] (setting [3]).

Turning to `Cc1cccc(C)c1-c1nc2c3ccccc3nc(N[C@@H]3CCCCNC3=O)n2n1` [Example 623, (3R)-3-{[2-(2,6-dimethylphenyl)[1,2,4]triazolo[1,5-c]quinazolin-5-yl]amino}azepan-2-one], the figures for the IC50 on AHR [1] and at AHR [2] (setting [3]) were 3.37e-07 M and 4.65 nM, respectively.

For `COc1ccc(-c2nc3c4ccccc4nc(N[C@@H]4CCCCNC4=O)n3n2)cc1OC` [Example 624, (3R)-3-{[2-(3,4-dimethoxyphenyl)[1,2,4]triazolo[1,5-c]quinazolin-5-yl]amino}azepan-2-one], the IC50 against AHR [1] worked out at 3.49e-09 M; at AHR [2] (setting [3]), 1.24 nM.

Consider `O=C1NCCCC[C@H]1Nc1nc2ccccc2c2nc(-c3ccc(F)c(Cl)c3)nn12` [Example 625, (3R)-3-{[2-(3-chloro-4-fluorophenyl)[1,2,4]triazolo[1,5-c]quinazolin-5-yl]amino}azepan-2-one], for which the IC50 on AHR [1] was 1.5e-09 M; at AHR [2] (read-out: AHR Antagonism Mouse IC50, mouse Hepa 1c1c7 cells, 200 μM kynurenic acid, 20 hours), more than 2000 nM.

As to `COc1ccc(-c2nc3c4ccccc4nc(N[C@@H]4CCCCNC4=O)n3n2)cc1C` [Example 627, (3R)-3-{[2-(4-methoxy-3-methylphenyl)[1,2,4]triazolo[1,5-c]quinazolin-5-yl]amino}azepan-2-one], the figures for the IC50 on AHR [1] and on AHR [2] (setting [3]) were 6.68e-10 M and 0.326 nM, respectively.

`O=C1NCCCC[C@H]1Nc1nc2ccccc2c2nc(-c3ccc(O)c(F)c3)nn12` [Example 629, (3R)-3-{[2-(3-fluoro-4-hydroxyphenyl)[1,2,4]triazolo[1,5-c]quinazolin-5-yl]amino}azepan-2-one]: the IC50 against AHR [1] stood at 4.88e-08 M; at AHR [2] (setting [3]) it was 190 nM.

Take `CSc1ccc(-c2nc3c4ccccc4nc(N[C@@H]4CCCCNC4=O)n3n2)c(F)c1` [Example 630, (3R)-3-({2-[2-fluoro-4-(methylsulfanyl)phenyl][1,2,4]triazolo[1,5-c]quinazolin-5-yl}amino)azepan-2-one]: the IC50 is 4.83e-10 M at AHR [1] and 0.861 nM on AHR [2] (setting [3]).

Consider `COc1ccc(-c2nc3c4ccccc4nc(N[C@@H]4CCCCNC4=O)n3n2)c(F)c1` [Example 631, (3R)-3-{[2-(2-fluoro-4-methoxyphenyl)[1,2,4]triazolo[1,5-c]quinazolin-5-yl]amino}azepan-2-one], for which the half-maximal inhibitory concentration (IC50) against AHR [1] amounted to 1e-09 M; at AHR [2] (setting [3]), 3.53 nM.

`CC(C)Oc1ccc(-c2nc3c4ccccc4nc(N[C@@H]4CCCCNC4=O)n3n2)cc1F` [Example 632, (3R)-3-[(2-{3-fluoro-4-[(propan-2-yl)oxy]phenyl}[1,2,4]triazolo[1,5-c]quinazolin-5-yl)amino]azepan-2-one]: the IC50 against AHR [1] is 1.29e-09 M; at AHR [2] (setting [3]), 0.784 nM.
